Experiment: Screening of lyoprotectants for stabilization of nanoparticles on lyophilization (particle size before lyophilization and after reconstitution)
Type: physicochemical
Details: single lyoprotectant, amounts 5-20% (FIG. 15)
From the text: FIG. 15 compares particle size as a function of lyoprotectant and lyoprotectant amount for representative phospholipid-coated therapeutic agent (paclitaxel) nanoparticles of the invention, PC-coated paclitaxel nanoparticle manufactured by thin film-hydration method (LM-101), before lyophilization and after reconstitution.

OC[C@H]1O[C@H](O[C@H]2O[C@H](CO)[C@@H](O)[C@H](O)[C@H]2O)[C@H](O)[C@@H](O)[C@@H]1O [Trehalose]
stabilization of particles on lyophilization (lyoprotectant): best in stabilizing the particles on lyophilization

From patent publication US20160346219A1, “PHOSPHOLIPID-COATED THERAPEUTIC AGENT NANOPARTICLES AND RELATED METHODS” (Autotelic LLC, priority 2015, published 2016)
